Here are results for two compounds from ChEMBL document CHEMBL3603786, “The 2',4'-dihydroxychalcone could be explored to develop new inhibitors against the glycerol-3-phosphate dehydrogenase from Leishmania species” (Bioorg Med Chem Lett, 2015).

Data set [1] deals with Leishmania amazonensis. The data set is described as follows: Antileishmanial activity against promastigotes of Leishmania amazonensis MPRO/BR/1972/M1841-LV-79 after 72 hrs by MTT assay. Format: functional, organism-based. To be noted: MPRO/BR/1972/M1841-LV-79, 72 h.
A short description of data set [2]: Cytotoxicity against Swiss albino mouse peritoneal macrophages after 24 hrs by MTT assay. Format: cell-based, Peritoneal macrophage cell. In general terms: Formazan colour is commonly taken as a measure of viable cells.
Data set [3] is described as follows: Selectivity index, ratio of CC50 for Swiss albino mouse peritoneal macrophages to IC50 for promastigotes of Leishmania amazonensis MPRO/BR/1972/M1841-LV-79. Format: functional.
The test system of data set [4] is Leishmania amazonensis. The data set is described as follows: Ratio of pentamidine IC50 to compound IC50 for Leishmania amazonensis MPRO/BR/1972/M1841-LV-79. Format: functional.

Regarding `N=C(N)c1ccc(OCCCCCOc2ccc(C(=N)N)cc2)cc1` [PENTAMIDINE], half-maximal inhibition in the data set on Leishmania amazonensis [1] (IC50) was put at 6.7 µM. In data set [2], the CC50 (usually the concentration at which the toxic effect on the cells reaches its halfway point) at 24 h is 35.7 µM. Also, the “Ratio CC50/IC50” value in data set [3] is recorded as 5.3.
On to `O=C(/C=C/c1ccccc1)c1ccc(O)cc1O` [2',4'-DIHYDROXYCHALCONE], for which the IC50 (in general, the concentration needed to halve the response being measured) in the data set with Leishmania amazonensis [1] is 0.4 µM. The CC50 at 24 h in data set [2] was 417 µM. Further, in data set [3], the “Ratio CC50/IC50” value was 1041.7. Moreover, in the data set on Leishmania amazonensis [4], the “Ratio IC50” value is listed as 16.
